Source: patent US8063221B2, “Aminoquinolones as GSK-3 inhibitors” (Kyorin Pharmaceutical Co., Ltd., priority 2006, dated 2011)

biological target: T1, recombinant full-length human GSK3β (Homo sapiens, UniProt P49841); assay: Luciferase-coupled cell-free GSK3β kinase assay; assay type: biochemical; conditions: Table 1
T1 construct: recombinant full-length human GSK3β (Upstate); purchased Upstate
Description: For compounds in Tables 1 and 2, IC50 (μM) for GSK3β enzyme in cell free assay is provided as follows:
Luciferase-Coupled Protein Kinase Assays
All coupled-luciferase assays are performed by using a brief incubation with firefly luciferase (Promega) after completion of the kinase assay. KinaseGlo Plus is used for reading kinase reactions with ATP>10 μM, KinaseGlo for ATP <10 μM. The assay volume in a 384-well plate for the kinase reaction is 30 microliters.
10-25 ng of recombinant full-length human GSK3β (Upstate) is incubated in the presence or absence of compound at varying concentrations for 1 hour at 30 degrees Celsius in 20 mM MOPS, pH 7.0, 10 mM magnesium acetate, 0.2 mM EDTA, 2 mM EGTA, 30 mM magnesium chloride, 62.5 μM phospho-glycogen synthase peptide-2, 5 μM ATP, 10 mM β-glycerol phosphate, 1 mM sodium orthovanadate and 1 mM dithiothreitol. Proceed to KinaseGlo luciferase reaction (see below).
Following the completion of the kinase reaction an equal volume of KinaseGlo or KinaseGlo Plus luciferase reagent (Promega) is added and the luminescence read using a luminescence plate reader within 5-10 minutes. Compound activity is expressed as % inhibition relative to maximal inhibition observed at the maximal dose and IC50 values then calculated using curve fitting software (GraphPad Prizm).

T1 sequence (P49841 whole entry): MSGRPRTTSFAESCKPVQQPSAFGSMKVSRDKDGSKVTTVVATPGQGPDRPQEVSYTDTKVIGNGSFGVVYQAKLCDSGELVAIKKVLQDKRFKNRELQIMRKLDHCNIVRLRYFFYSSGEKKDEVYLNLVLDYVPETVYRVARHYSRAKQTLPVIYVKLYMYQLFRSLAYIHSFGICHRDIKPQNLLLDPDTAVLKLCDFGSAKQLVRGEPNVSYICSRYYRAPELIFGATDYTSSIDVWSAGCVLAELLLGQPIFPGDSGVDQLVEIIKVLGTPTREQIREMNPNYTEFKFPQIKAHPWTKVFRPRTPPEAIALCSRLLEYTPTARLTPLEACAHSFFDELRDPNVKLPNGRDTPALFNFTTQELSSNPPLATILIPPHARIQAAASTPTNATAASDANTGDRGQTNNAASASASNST

`N#Cc1ccc(NCCNc2c(F)c(N)c3c(=O)ccn(C4CC4)c3c2F)nc1` [compound 40] and `N#Cc1ccc(NCCNc2c(F)c(N)c3c(=O)c(C(=O)O)cn(C4CC4)c3c2F)nc1` [compound 37] fall in the same range of IC50: 100 to 500 nM for the first, 100 to 500 nM for the second.

Compared with `CC1COc2c(NCCCOc3ccccc3)c(F)c(N)c3c(=O)c(C(=O)O)cn1c23` (centres unmarked) [compound 88], `CC1COc2c(NCCCn3ccnc3)c(F)c(N)c3c(=O)c(C(=O)O)cn1c23` (centres unmarked) [compound 89] is lower in IC50: 100 to 500 nM for the first, less than 100 nM for the second.

Compared with `Nc1c(F)c(NCCNC(=O)c2ccc(F)cc2)c(F)c2c1c(=O)ccn2C1CC1` [compound 35], `Nc1c(F)c(NCCNC(=O)c2ccccc2)c(F)c2c1c(=O)ccn2C1CC1` [compound 33] is higher in IC50: 100 to 500 nM for the first, 500 to 1000 nM for the second.

`Nc1c(F)c(NCCn2cncn2)c(F)c2c1c(=O)c(C(=O)O)cn2C1CC1` [compound 44] and `Nc1c(F)c(NCCn2ccnc2)c(F)c2c1c(=O)c(C(=O)O)cn2C1CC1` [compound 42] cannot be ordered by IC50: greater than 1000 nM for the first, greater than 1000 nM for the second.

First: CNNC(=O)c1cn(C2CC2)c2c(F)c(NCCCc3ccccc3)c(F)c(N)c2c1=O [compound 86]
Second: Nc1c(F)c(NCCNC(=O)c2ccccc2)c(F)c2c1c(=O)c(C(=O)O)cn2C1CC1 [compound 30]
The IC50 of the first is higher: greater than 1000 nM for the first, 500 to 1000 nM for the second. The second is the more potent here.

`Nc1c(F)c(NCCc2ccc(Cl)cc2Cl)c(F)c2c1c(=O)ccn2C1CC1` [compound 24] and `Nc1c(F)c(NCCc2ccc(F)cc2F)c(F)c2c1c(=O)ccn2C1CC1` [compound 31] cannot be ordered by IC50: greater than 1000 nM for the first, greater than 1000 nM for the second.

First: Nc1c(F)c(NCCNC(=O)c2ccc(F)cc2)c(F)c2c1c(=O)c(C(=O)O)cn2C1CC1 [compound 34]
Second: Nc1c(F)c(NCCNC(=O)c2ccncc2)c(F)c2c1c(=O)c(C(=O)O)cn2C1CC1 [compound 41]
The IC50 of the first is lower: 100 to 500 nM for the first, 500 to 1000 nM for the second. The first is the more potent here.

First: Nc1c(F)c(NCCc2ccc(-c3ccccc3)cc2)c(F)c2c1c(=O)ccn2C1CC1 [compound 27]
Second: Nc1c(F)c(NCCc2ccccc2)c(F)c2c1c(=O)ccn2C1CC1 [compound 32]
The IC50 of the first is higher: greater than 1000 nM for the first, 500 to 1000 nM for the second. The second is the more potent here.

`Nc1cc(NCCCc2ccccc2)cc2c1c(=O)c(C(=O)O)cn2C1CC1` [compound 45] and `Nc1cc(NCCNc2ccccn2)cc2c1c(=O)c(C(=O)O)cn2C1CC1` [compound 36] cannot be ordered by IC50: greater than 1000 nM for the first, greater than 1000 nM for the second.

First: Nc1ccc(CCNc2c(F)c(N)c3c(=O)c(C(=O)O)cn(C4CC4)c3c2F)cc1 [compound 2]
Second: Nc1c(F)c(NCCc2ccc(Cl)cc2)c(F)c2c1c(=O)c(C(=O)O)cn2C1CC1 [compound 4]
The IC50 of the first is higher: 500 to 1000 nM for the first, 100 to 500 nM for the second.

First: CC(C)OCCCNc1c(F)c(N)c2c(=O)ccn(C3CC3)c2c1F [compound 25]
Second: Nc1c(F)c(NCCc2ccc(Cl)cc2)c(F)c2c1c(=O)ccn2C1CC1 [compound 9]
The IC50 of the first is higher: greater than 1000 nM for the first, 500 to 1000 nM for the second.

`Nc1c(F)c(NCCNC(=O)c2ccccn2)c(F)c2c1c(=O)c(C(=O)O)cn2C1CC1` [compound 38] and `Nc1c(F)c(NCCNC(=O)c2ccc3ccccc3n2)c(F)c2c1c(=O)c(C(=O)O)cn2C1CC1` [compound 39] fall in the same range of IC50: 500 to 1000 nM for the first, 500 to 1000 nM for the second.

First: Nc1c(F)c(NCc2ccc(Cl)cc2)c(F)c2c1c(=O)ccn2C1CC1 [compound 14]
Second: Nc1c(F)c(NCc2ccc(Cl)cc2)c(F)c2c1c(=O)c(C(=O)O)cn2C1CC1 [compound 8]
The IC50 of the first is higher: greater than 1000 nM for the first, 500 to 1000 nM for the second. The second is the more potent here.

First: Nc1c(F)c(NCCc2ccc(Cl)cc2Cl)c(F)c2c1c(=O)c(C(=O)O)cn2C1CC1 [compound 18]
Second: Nc1c(F)c(N2CCN(Cc3ccccc3)CC2)c(F)c2c1c(=O)c(C(=O)O)cn2C1CC1 [compound 22]
The IC50 of the first is lower: 500 to 1000 nM for the first, greater than 1000 nM for the second. The first is the more potent here.

same assay, conditions: Table 2

`Cc1cc(NCCNc2c(F)c(N)c3c(=O)c(C(=O)O)cn4c3c2OC[C@@H]4C)c2ccccc2n1` [Example 94] and `Cc1ccc2nc(C)cc(NCCNc3c(F)c(N)c4c(=O)c(C(=O)O)cn5c4c3OC[C@@H]5C)c2c1` [Example 100] cannot be ordered by IC50: less than 100 nM for the first, less than 100 nM for the second.

`CCOc1ccc(CCCNc2c(F)c(N)c3c(=O)c(C(=O)O)cn4c3c2OC[C@@H]4C)cc1OCC` [Example 98] and `COc1cccc(CCCNc2c(F)c(N)c3c(=O)c(C(=O)O)cn4c3c2OC[C@@H]4C)c1` [compound 89] cannot be ordered by IC50: less than 100 nM for the first, less than 100 nM for the second.

Compared with `C[C@H]1COc2c(NCCC3CCCCC3)c(F)c(N)c3c(=O)c(C(=O)O)cn1c23` [Example 104], `C[C@H]1COc2c(NCCc3ccncc3)c(F)c(N)c3c(=O)c(C(=O)O)cn1c23` [compound 22] is higher in IC50: less than 100 nM for the first, 100 to 500 nM for the second. The first is the more potent here.

First: CC1(C)COc2c(NCCCOc3ccccc3)c(F)c(N)c3c(=O)c(C(=O)O)cn(c23)C1 [compound 28]
Second: C[C@H]1COc2c(NCCOc3ccccc3)c(F)c(N)c3c(=O)c(C(=O)O)cn1c23 [Example 99]
The IC50 of the first is higher: 100 to 500 nM for the first, less than 100 nM for the second. The second is the more potent here.

`C[C@H]1COc2c(NCCOc3ccc(C(=O)O)cc3)c(F)c(N)c3c(=O)c(C(=O)O)cn1c23` [Example 105] and `C[C@H]1COc2c(NCCOc3ccc(Cl)cc3)c(F)c(N)c3c(=O)c(C(=O)O)cn1c23` [compound 83] cannot be ordered by IC50: less than 100 nM for the first, less than 100 nM for the second.

`COc1ccc(OCC(C)Nc2c(F)c(N)c3c(=O)c(C(=O)O)cn4c3c2OC[C@@H]4C)cc1` (some centres unmarked) [compound 86] and `CC(COc1ccc(Cl)cc1)Nc1c(F)c(N)c2c(=O)c(C(=O)O)cn3c2c1OC[C@@H]3C` (some centres unmarked) [compound 74] fall in the same range of IC50: 500 to 1000 nM for the first, 500 to 1000 nM for the second.

`C[C@H]1COc2c(NCCCc3ccccc3)c(F)c(N)c3c(=O)c(C(N)=O)cn1c23` [Example 106] and `C[C@H]1COc2c(NCCCc3ccccc3)c(F)c(N)c3c(=O)c(C#N)cn1c23` [Example 108] cannot be ordered by IC50: less than 100 nM for the first, less than 100 nM for the second.

`CC(C)c1ccc(OCCNc2c(F)c(N)c3c(=O)c(C(=O)O)cn4c3c2OC[C@@H]4C)cc1` [compound 78] and `Cc1ccc(OCCNc2c(F)c(N)c3c(=O)c(C(=O)O)cn4c3c2OC[C@@H]4C)cc1` [compound 77] fall in the same range of IC50: 100 to 500 nM for the first, 100 to 500 nM for the second.

First: C[C@H]1COc2c(NCCOc3ccc(-c4ccccc4)cc3)c(F)c(N)c3c(=O)c(C(=O)O)cn1c23 [Example 96]
Second: COc1ccc(OCCNc2c(F)c(N)c3c(=O)c(C(=O)O)cn4c3c2OC[C@@H]4C)cc1 [Compound 87]
The IC50 of the first is higher: 500 to 1000 nM for the first, 100 to 500 nM for the second.

First: C[C@H]1COc2c(NCCN3CCc4ccccc43)c(F)c(N)c3c(=O)c(C(=O)O)cn1c23 [compound 69]
Second: C[C@H]1COc2c(NCCCN3CCc4ccccc43)c(F)c(N)c3c(=O)c(C(=O)O)cn1c23 [compound 68]
The IC50 of the first is lower: less than 100 nM for the first, 100 to 500 nM for the second. The first is the more potent here.

`Cc1n[nH]c(SCCNc2c(F)c(N)c3c(=O)c(C(=O)O)cn4c3c2OC[C@@H]4C)n1` [Example 111] and `Cc1nn(C)c(C)c1CCCNc1c(F)c(N)c2c(=O)c(C(=O)O)cn3c2c1OC[C@@H]3C` [Example 92] cannot be ordered by IC50: less than 100 nM for the first, less than 100 nM for the second.

`C[C@H]1COc2c(NCCCc3ccc(Cl)cc3)c(F)c(N)c3c(=O)c(C(=O)O)cn1c23` [Example 102] and `COc1ccc(CCCNc2c(F)c(N)c3c(=O)c(C(=O)O)cn4c3c2OC[C@@H]4C)cc1` [compound 73] cannot be ordered by IC50: less than 100 nM for the first, less than 100 nM for the second.

Compared with `CC1(C)COc2c(NCCNc3cccc(F)n3)c(F)c(N)c3c(=O)c(C(=O)O)cn1c23` [compound 35], `Nc1c(F)c(NCCNc2ccccn2)c2c3c1c(=O)c(C(=O)O)cn3CCCO2` [compound 11] is higher in IC50: less than 100 nM for the first, greater than 1000 nM for the second. The first is the more potent here.

`C[C@H]1COc2c(NCCCNC(=O)c3ccccn3)c(F)c(N)c3c(=O)c(C(=O)O)cn1c23` [Example 117] and `C[C@H]1COc2c(NCCCNC(=O)c3cccnc3)c(F)c(N)c3c(=O)c(C(=O)O)cn1c23` [Example 118] cannot be ordered by IC50: less than 100 nM for the first, less than 100 nM for the second.

`C[C@H]1COc2c(NCCCc3nc4ccccc4[nH]3)c(F)c(N)c3c(=O)c(C(=O)O)cn1c23` [compound 82] and `C[C@H]1COc2c(NCCSc3c[nH]c4ccccc34)c(F)c(N)c3c(=O)c(C(=O)O)cn1c23` [Example 116] cannot be ordered by IC50: less than 100 nM for the first, less than 100 nM for the second.

Compared with `COc1ccc(C(CCNc2c(F)c(N)c3c(=O)c(C(=O)O)cn4c3c2OC[C@@H]4C)c2ccc(F)cc2)cc1` (some centres unmarked) [compound 81], `C[C@H]1COc2c(NCCC(c3ccccc3)c3ccc4c(c3)OCO4)c(F)c(N)c3c(=O)c(C(=O)O)cn1c23` (some centres unmarked) [Example 97] is higher in IC50: less than 100 nM for the first, 100 to 500 nM for the second.

First: Cc1cc(OCCNc2c(F)c(N)c3c(=O)c(C(=O)O)cn4c3c2OC[C@@H]4C)ccc1Cl [compound 84]
Second: CC(CCc1ccccc1Cl)Nc1c(F)c(N)c2c(=O)c(C(=O)O)cn3c2c1OC[C@@H]3C (some centres unmarked) [compound 88]
The IC50 of the first is lower: less than 100 nM for the first, 100 to 500 nM for the second. The first is the more potent here.

`Nc1c(F)c(NCCCn2ccnc2)c2c3c1c(=O)c(C(=O)O)cn3CCCO2` [compound 53] and `Nc1c(F)c(NCCCc2ccccc2)c2c3c1c(=O)c(C(=O)O)cn3CCCO2` [compound 46] fall in the same range of IC50: 100 to 500 nM for the first, 100 to 500 nM for the second.

First: Nc1c(F)c(NCCCn2cc[n+]3ccccc23)c2c3c1c(=O)c(C(=O)O)cn3CCO2 [compound 10]
Second: C[C@H]1COc2c(NCCN3CCC(c4ccccc4)C3)c(F)c(N)c3c(=O)c(C(=O)O)cn1c23 (some centres unmarked) [Example 91]
The IC50 of the first is lower: 500 to 1000 nM for the first, greater than 1000 nM for the second.

`COc1c(NCCNc2cccc3ccccc23)c(F)c(N)c2c(=O)ccn(C3CC3)c12` [compound 66] and `CC1COc2c(NCCNc3cccc4ccccc34)c(F)c(N)c3c(=O)c(C(=O)O)cn1c23` (centres unmarked) [compound 7] cannot be ordered by IC50: less than 100 nM for the first, less than 100 nM for the second.

First: CC(CCc1ccc(Cl)cc1)Nc1c(F)c(N)c2c(=O)c(C(=O)O)cn3c2c1OC[C@@H]3C (some centres unmarked) [compound 71]
Second: CC1Cc2ccccc2N1C(=O)CCCNc1c(F)c(N)c2c(=O)c(C(=O)O)cn3c2c1OC[C@@H]3C (some centres unmarked) [compound 90]
The IC50 of the first is lower: less than 100 nM for the first, 500 to 1000 nM for the second.

For `C[C@H]1COc2c(NCCNc3ccccn3)c(F)c(N)c3c(=O)c(C#N)cn1c23` [Example 110], the IC50 was less than 100 nM.
